Data from PubChem BioAssay AID2060491 (Molecular Pharmacology Branch, DTP, NCI, 2025).

Test system: 857933-349-R-J2-PDC complex spheroids, viability
Assay: Anticancer human tumor 857933-349-R-J2-PDC patient-derived colon adenocarcinoma cell line growth inhibition [GQUAD]
Conditions: for IC50: curve of first compound; for viability, T/C: stronger effect = lower value
Source text: DNA G-quadruplex Stabilizer Agents in Combinations in Complex Spheroids
A high-throughput screen of multi-cell type tumor spheroids was designed to identify active combinations of DNA G-quadruplex stabilizer agents and targeted small molecules. Complex spheroids include a stromal component modeled by human endothelial cells (HUVEC) and fibroblasts modeled by human mesenchymal stem cells (MSCs). The concentration ranges selected for each drug and investigational agent were based upon clinically achievable concentrations if the clinical Cmax of the agent was known.
Compounds. The drugs and investigational agents: pidnarulex (CX-5461; NSC782164), APTO-253 (NSC789042), BRACO-19 (NSC847499), peposertib (NSC802822), ceralasertib (NSC780249), elimusertib (NSC800525), camonsertib (NSC841442), AZD-1390 (NSC803789), olaparib (NSC753686), talazoparib (NSC767125), ART-558 (NSC835418), sotorasib (NSC818433), MRTX-1133 (NSC836407), SN-38 (NSC673596), topotecan (NSC609699), etoposide (NSC141540), doxorubicin (NSC123127), gemcitabine (NSC613327), 5-fluorouracil (NSC19893), paclitaxel (NSC125973), vemurafenib (NSC761431), panobinostat (NSC761190), R-306465 (JNJ-16241199; NSC773264), adavosertib (NSC754352), TP-3654 (NSC805149), carboplatin (NSC241240), KSQ-4279 (NSC840948), and staurosporine (NSC755774) were obtained from the National Cancer Institute (NCI) Developmental Therapeutics Program Chemical Repository (34). The FDA-approved anticancer drug set is available from the NCI Developmental Therapeutics Program. […] The stock solutions were prepared in dimethyl sulfoxide (DMSO, Sigma-Aldrich, St. Louis, MO, cat. D2650) at 800-fold the tested concentration and stored at -70 degrees C prior to their use. All drugs and investigational agents were tested over a range starting from a high concentration at or near the clinical Cmax and decreasing in half-log increments. If the clinical Cmax for an agent had not been determined, the highest concentration tested was 10 microM.
2.3 Cell Culture. All cells were maintained in an incubator at 37 degrees C and 5% CO2 with 95% humidity. The PDC lines were cultured according to standard operating procedures established by the NCI PDMR. All PDCs were thawed and cultured in Matrigel-coated flasks prepared with a working solution of 1X Ham's F-12 nutrient mix, without supplementation (Invitrogen, cat. 11765054), 100 U/mL penicillin-streptomycin (Invitrogen, cat. 15140122), and 2.5% Matrigel (Corning Inc., cat. 354248) for the first three passages. The 857933-349-R-J2-PDC line was cultured in 6C/Colon 1B media, which includes advanced DMEM/F-12 (Thermo Fisher Scientific, cat. 12634028), 10 mM HEPES (Thermo Fisher Scientific, cat. 15630080), 1X GlutaMAX supplement (Thermo Fisher Scientific, cat. 35050061), 0.1 mg/mL primocin (InvivoGen, cat. ant-pm-2), 10% defined fetal bovine serum, heat inactivated (HyClone Laboratories Inc., cat. SH30070.03HI), 50% L-WRN conditioned media (ATCC, cat. CRL-3276), 1.25 mM N-Acetyl-L-cysteine (Sigma-Aldrich, cat. A9165), 10 mM nicotinamide (Sigma-Aldrich, cat. N0636), 1X B-27 supplement (Thermo Fisher Scientific, cat. 17504044), 1X N-2 supplement (Thermo Fisher Scientific, cat. 17502048), 10 microM Y-27632 dihydrochloride (Tocris Bioscience, cat. 1254), and 50 ng/mL human EGF recombinant protein (Thermo Fisher Scientific, cat. PHG0311). The 485176-168-R4-J1-PDC line was cultured in Panc media, which includes all 6C/Colon 1B media components plus 100 ng/mL human FGF-10 (Thermo Fisher Scientific, cat. 100-26), 500 nM SB-431542 (Selleckchem, cat. S1067), and gastrin (Tocris, cat. 3006).
[…]
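Further: spheroids exposed to compounds for one week before readout.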
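Wherever viability, T/C is given: percent viability relative to vehicle DMSO wells taken as 100%.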

CC1COCCN1c1cc(-c2ccnn2C)c2ccnc(-c3ccn[nH]3)c2n1 (configuration not stated) + CN(C)c1ccc(Nc2c3ccc(NC(=O)CCN4CCCC4)cc3nc3cc(NC(=O)CCN4CCCC4)ccc23)cc1 was tested, and the IC50 (second compound 0.0316 µM) was > 10 µM, the IC50 (second compound 0.1 µM) was > 10 µM and the IC50 (second compound 0.316 µM) was > 10 µM. The IC50 (second compound 1 µM) was > 10 µM, the IC50 (second compound 3.16 µM) was > 10 µM and the IC50 (second compound 10 µM) was 2.95 µM. The viability, T/C (second compound 0.0316 µM, first compound 0.0316 µM) was 98.3%, the viability, T/C (second compound 0.0316 µM, first compound 0.1 µM) was 80.7% and the viability, T/C (second compound 0.0316 µM, first compound 0.316 µM) was 78%. The viability, T/C (second compound 0.0316 µM, first compound 1 µM) was 60.8%, the viability, T/C (second compound 0.0316 µM, first compound 3.16 µM) was 56.2% and the viability, T/C (second compound 0.0316 µM, first compound 10 µM) was 62.5%. For the same molecule, the viability, T/C (second compound 0.1 µM, first compound 0.0316 µM) was 96.1%, the viability, T/C (second compound 0.1 µM, first compound 0.1 µM) was 82.5% and the viability, T/C (second compound 0.1 µM, first compound 0.316 µM) was 73.5%. For the same molecule, the viability, T/C (second compound 0.1 µM, first compound 1 µM) was 58.3%, the viability, T/C (second compound 0.1 µM, first compound 3.16 µM) was 54.3% and the viability, T/C (second compound 0.1 µM, first compound 10 µM) was 69.7%. It also gave a viability, T/C (second compound 0.316 µM, first compound 0.0316 µM) of 90.8%, a viability, T/C (second compound 0.316 µM, first compound 0.1 µM) of 80.8% and a viability, T/C (second compound 0.316 µM, first compound 0.316 µM) of 74.7%. For the same molecule, the viability, T/C (second compound 0.316 µM, first compound 1 µM) was 59.4%, the viability, T/C (second compound 0.316 µM, first compound 3.16 µM) was 58.6% and the viability, T/C (second compound 0.316 µM, first compound 10 µM) was 63.1%. The viability, T/C (second compound 1 µM, first compound 0.0316 µM) was 93.5%, the viability, T/C (second compound 1 µM, first compound 0.1 µM) was 73.4% and the viability, T/C (second compound 1 µM, first compound 0.316 µM) was 73.8%. The viability, T/C (second compound 1 µM, first compound 1 µM) was 55.9%, the viability, T/C (second compound 1 µM, first compound 3.16 µM) was 58.4% and the viability, T/C (second compound 1 µM, first compound 10 µM) was 54.3%. For the same molecule, the viability, T/C (second compound 3.16 µM, first compound 0.0316 µM) was 85.9%, the viability, T/C (second compound 3.16 µM, first compound 0.1 µM) was 71.8% and the viability, T/C (second compound 3.16 µM, first compound 0.316 µM) was 66.1%. For the same molecule, the viability, T/C (second compound 3.16 µM, first compound 1 µM) was 53.1%, the viability, T/C (second compound 3.16 µM, first compound 3.16 µM) was 58.9% and the viability, T/C (second compound 3.16 µM, first compound 10 µM) was 52.4%. For the same molecule, the viability, T/C (second compound 10 µM, first compound 0.0316 µM) was 75.8%, the viability, T/C (second compound 10 µM, first compound 0.1 µM) was 70.8% and the viability, T/C (second compound 10 µM, first compound 0.316 µM) was 61.9%. It also gave a viability, T/C (second compound 10 µM, first compound 1 µM) of 55.2%, a viability, T/C (second compound 10 µM, first compound 3.16 µM) of 49.6% and a viability, T/C (second compound 10 µM, first compound 10 µM) of 44.6%.
